Data reported in PMC3694332 (Biopharmaceutics & drug disposition, 2009).
Where two headings read alike, the source gives them in different places.

Assays:
MRP1 [1] = settings: cited from earlier work
cellular GSH levels = settings: 100 μM, 2 h incubation; cited from earlier work
CaCo2 cell monolayers = settings: cited from earlier work
[2] = cited from earlier work
[3] = rats; cited from earlier work
BCRP [4] = settings: NHI-H460/MX20, BCRP; cited from earlier work
P-gp [5] = settings: cited from earlier work; for investigated as substrate (S)/inhibitor (I): 8226/Dox, P-gp
[6] = human, in vivo; cited from earlier work
BCRP [7] = settings: FTC 10 μM, 25 μM PEITC; cited from earlier work
MRP1 [8] = settings: Panc-1 cells, 100 μM isothiocyanate, 2 h; cited from earlier work
MRP1 [9] = settings: cited from earlier work; remark: listed apart in the source
MRP2 = settings: cited from earlier work
P-gp [10] = settings: MCF7/ADR cells, 100 μM isothiocyanate, 2 h; cited from earlier work
[11] = rat, in vivo, cited from earlier work
P-gp [12] = settings: verapamil or PSC833; Caco-2, MCF-7/ADR, MDA435/LCC6, MDA435/LCC6MDR1 cells; cited from earlier work
[13] = rats, cited from earlier work
[14] = Effect of BITC co-administration on topotecan pharmacokinetics; settings: Sprague-Dawley, rat, plasma

C=CCN=C=S [Allyl isothiocyanate]
investigated as substrate (S)/inhibitor (I) (MRP1 [1]; HL60/AR, MRP1): Allyl isothiocyanate (S)

S=C=NCc1ccccc1 [BITC, benzyl isothiocyanate]
GSH, % of control values in untreated cells (cellular GSH levels): 15.3±6.4 % of control
decrease of cellular GSH levels (cellular GSH levels): decreased
increase in accumulation of daunomycin (CaCo2 cell monolayers): 1.75 fold

CC[C@@]1(O)C(=O)OCc2c1cc1n(c2=O)Cc2cc3c(CNC)c(O)ccc3nc2-1 [N-desmethyl topotecan]
percent of N-desmethyl topotecan formed ([2]; in the plasma): less than 0.7%
percent of N-desmethyl topotecan formed ([2]; in the urine): 1–4%

S=C=Nc1cccc2ccccc12 [NITC, α-naphthyl isothiocyanate]
decrease of cellular GSH levels (cellular GSH levels): not
Nonlinear pharmacokinetics [3]: Yes

S=C=NCCc1ccccc1 [PEITC, phenethyl isothiocyanate]
investigated as substrate (S)/inhibitor (I) (BCRP [4]): Phenethyl isothiocyanate (S)
investigated as substrate (S)/inhibitor (I) (P-gp [5]): Phenethyl isothiocyanate (S)
CL/F [6]: 29.5 L/h
Cmax [6]: 0.928 µM
Half-life [6]: 4.9 h
Tmax [6]: 2.6 h
decrease of ATP-dependent accumulation of PEITC in inside-out vesicles by FTC (BCRP [7]): 1.7 fold
increase in accumulation of vinblastine (MRP1 [8]): 2 fold
GSH, % of control values in untreated cells (cellular GSH levels): 10±3.5 % of control
decrease of cellular GSH levels (cellular GSH levels): decreased
change of 14C tracer accumulation by MK571 (MRP1 [9]; 100 μM MK571, higher PEITC concentrations): did not change
increase of 14C tracer accumulation by MK571 (MRP1 [9]; 2 h co-incubation with 100 μM MK571, PEITC 1 μM): 6.8 fold
increase of 14C tracer accumulation by MK571 (MRP1 [9]; 2 h co-incubation with 100 μM MK571, PEITC 5 μM): 5.9 fold
increase of 14C tracer accumulation by MK571 (MRP1 [9]; 2 h co-incubation with 100 μM MK571, PEITC 20 μM): 1.9 fold
increase of intracellular 14C accumulation by MK571 (MRP2; 50 μM MK571, PEITC 1 μM): 2.5 fold
increase of intracellular 14C accumulation by MK571 (MRP2; 50 μM MK571, PEITC 5 μM): 3.5 fold
increase of intracellular 14C accumulation by MK571 (MRP2; 50 μM MK571, PEITC 10 μM): 4.5 fold
increase of intracellular 14C accumulation by MK571 (MRP2; 50 μM MK571, PEITC 50 μM): 1.8 fold
intracellular 14C lower in MDCK/MRP2 than in wild type MDCKII cells (MRP2; PEITC 1 μM): 55%
intracellular 14C lower in MDCK/MRP2 than in wild type MDCKII cells (MRP2; PEITC 5 μM): 14%
intracellular 14C lower in MDCK/MRP2 than in wild type MDCKII cells (MRP2; PEITC 10 μM): 12%
intracellular 14C lower in MDCK/MRP2 than in wild type MDCKII cells (MRP2; PEITC 50 μM): 61%
increase in accumulation of vinblastine (P-gp [10]): not
increase in accumulation of daunomycin (CaCo2 cell monolayers): 1.85 fold
clearance ([11]; 2 umol/kg): 11.6 mL/min/kg
Half-life ([11]; iv, 66 mg/kg): 13.1 h (i.v.)
Cmax ([11]; po, 16.3 mg/kg): 42.1 µM
Tmax ([11]; po, 16.3 mg/kg): 2.0 h
oral bioavailability ([11]; po): high
Nonlinear pharmacokinetics [11]: Yes
accumulation of 14C-PEITC in absence and presence of P-gp inhibitor (P-gp [12]): not changed

C[S+]([O-])CCCCN=C=S (stereo not drawn) [Sulforaphane, sulforaphane]
investigated as substrate (S)/inhibitor (I) (P-gp [5]): Sulforaphane (S)
accumulation of intracellular sulforaphane with inhibitors of P-gp (P-gp [5]; P-gp over-expressing cells): increased
accumulation of intracellular sulforaphane with inhibitors of MRP1 (MRP1 [1]; MRP1 over-expressing cells): increased
Cmax ([13]; 50 μmol oral (Table 1: 88.5 mg oral), plasma): 20 µM
Half-life ([13]; 50 μmol oral (Table 1: 88.5 mg oral)): 2.23 h
Half-life ([13]; 50 μmol oral (Table 1: 88.5 mg oral), listed as sulforaphane): about 2.2 h
Tmax ([13]; 88.5 mg oral): 4 h

CC[C@@]1(O)C(=O)OCc2c1cc1n(c2=O)Cc2cc3c(CN(C)C)c(O)ccc3nc2-1 [topotecan]
AUC(0-inf) ([14]; iv, 1 mg/kg, AUC0–∞, i.v. administration of 1 mg/kg topotecan, four rats): 707 ng·h/mL
AUC(0-t) ([14]; po, 2 mg/kg, AUC0–720 min, topotecan alone (2 mg/kg dose)): 182 ng·h/mL
